Measured values reported in patent publication US20240368181A1, “QUINOXALINE DERIVATIVES AND USES THEREOF” (Black Diamond Therapeutics, Inc., priority 2021, published 2024).

Key:
Assay type in all cases: cell-based
[1] = test system: UM-UC-14 (FGFR3-S249C) cells; assay: cell proliferation assay (CellTiterGlo), UM-UC-14 cells; settings: UMUC14, 72 h
Summary of the method: (§1)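 Luminescent ATP read-out (CellTiterGlo) after exposure to compound at varying concentrations or DMSO vehicle. IC50 derived with vehicle-treated wells set as viable cells.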

[2] = test system: SNU-16 (FGFR2-amplification) cells; assay: cell proliferation assay (CellTiterGlo), SNU-16 cells; settings: Homo sapiens, 72 hours
Summary of the method: as §1

[3] = test system: DMS-114 (FGFR1 overexpression) cells; assay: cell proliferation assay (CellTiterGlo), DMS-114 cells; settings: Homo sapiens, DMS-114, 72 h
Summary of the method: as §1

[4] = test system: RT-112 (FGFR3-Tacc3 fusion) cells; assay: cell proliferation assay (CellTiterGlo), RT-112 cells; settings: Homo sapiens, RT-112, RT112 cells, 72 hours
Summary of the method: as §1

Row | Compound | IC50 [1] [nM] | IC50 [2] [nM] | IC50 [3] [nM] | IC50 [4] [nM]
1 | Cc1nc2cc(Oc3ccc4ncc(-c5cnn(CC6CC(F)(F)C6)c5)nc4c3Cl)cc(F)c2[nH]1 [Compound 266] | 100 to 400 | 100 to 400 | ≥ 400 | 100 to 400
2 | Cc1nc2ccc(Oc3ccc4ncc(-c5cnn(CCN6CCC(O)C6)c5)nc4c3Cl)cc2[nH]1 (centres unmarked) [Compound 267] | 20 to 100 | 20 to 100 | ≥ 400 | 20 to 100
3 | Cc1nc2ccc(Oc3ccc4ncc(-c5cnn(CCO)c5)nc4c3Cl)c(F)c2[nH]1 [Compound 268] | 20 to 100 | 20 to 100 | ≥ 400 | 20 to 100
4 | Cc1nc2ccc(Oc3ccc4ncc(-c5cnn(CC(=O)O)c5)nc4c3Cl)cc2[nH]1 [Compound 269] | ≥ 400 | ≥ 400 | ≥ 400 | ≥ 400
5 | Cc1nc2ccc(Oc3ccc4ncc(-c5cnn(CC(=O)N6CCS(=O)(=O)CC6)c5)nc4c3Cl)cc2[nH]1 [Compound 270] | ≥ 400 | 100 to 400 | ≥ 400 | 20 to 100
6 | Cc1nc2ccc(Oc3ccc4ncc(-c5cnn(CC6CN(C)CCO6)c5)nc4c3Cl)cc2[nH]1 (centres unmarked) [Compound 271] | 20 to 100 | 20 to 100 | ≥ 400 | < 20
7 | Cc1nc2ccc(Oc3ccc4ncc(-c5cnn(CC(C)(C)C#N)c5)nc4c3Cl)cc2[nH]1 [Compound 272] | 20 to 100 | 20 to 100 | ≥ 400 | 20 to 100
8 | Cc1nc2ccc(Oc3ccc4ncc(-c5cnn(CC6CNCCO6)c5)nc4c3Cl)cc2[nH]1 (centres unmarked) [Compound 273] | 20 to 100 | 20 to 100 | ≥ 400 | 20 to 100
9 | Cc1nc2ccc(Oc3ccc4ncc(-c5cnn(CC(C)(C)C(N)=O)c5)nc4c3Cl)cc2[nH]1 [Compound 274] | 20 to 100 | 20 to 100 | ≥ 400 | 20 to 100
10 | Cc1nc2ccc(Oc3ccc4ncc(-c5cnn(CC6CC(F)(F)C6)c5C)nc4c3Cl)cc2[nH]1 [Compound 275] | 100 to 400 | ≥ 400 | ≥ 400 | ≥ 400
11 | Cc1nc2ccc(Oc3ccc4ncc(-c5cn(CC6CC(F)(F)C6)nc5C)nc4c3Cl)cc2[nH]1 [Compound 276] | 100 to 400 | 100 to 400 | ≥ 400 | 20 to 100
12 | COC1CCN(C(=O)Cn2cc(-c3cnc4ccc(Oc5ccc6nc(C)[nH]c6c5)c(Cl)c4n3)cn2)C1 (centres unmarked) [Compound 277] | 100 to 400 | 20 to 100 | ≥ 400 | 20 to 100
13 | Cc1nc2ccc(Oc3ccc4ncc(-c5cnn(CCC6CCS(=O)(=O)C6)c5)nc4c3Br)cc2[nH]1 (centres unmarked) [Compound 278] | < 20 | < 20 | ≥ 400 | < 20
14 | Cc1nc2ccc(Oc3ccc4ncc(-c5cnn(CC6CCS(=O)(=O)CC6)c5)nc4c3Br)cc2[nH]1 [Compound 279] | < 20 | < 20 | ≥ 400 | < 20
15 | Cc1nc2ccc(Oc3ccc4ncc(-c5cnn(CC(C)(C)O)c5)nc4c3Cl)cc2[nH]1 [Compound 280] | 20 to 100 | 20 to 100 | ≥ 400 | 20 to 100
16 | COC1CC(Cn2cc(-c3cnc4ccc(Oc5ccc6nc(C)[nH]c6c5)c(Cl)c4n3)cn2)C1 (centres unmarked) [Compound 281] | 20 to 100 | 20 to 100 | ≥ 400 | 20 to 100
17 | Cc1nc2ccc(Oc3ccc4ncc(-c5cnn(C(C)(C)CC(N)=O)c5)nc4c3Cl)cc2[nH]1 [Compound 282] | 100 to 400 | 20 to 100 | ≥ 400 | 20 to 100
18 | Cc1nc2ccc(Oc3ccc4ncc(-c5cnn(CC(=O)N6CC[C@@H](F)C6)c5)nc4c3Cl)cc2[nH]1 [Compound 283] | 20 to 100 | 20 to 100 | ≥ 400 | 20 to 100
19 | Cc1nc2ccc(Oc3ccc4ncc(-c5cnn(CC(=O)N6CC[C@H](F)C6)c5)nc4c3Cl)cc2[nH]1 [Compound 284] | 20 to 100 | 20 to 100 | ≥ 400 | 20 to 100
20 | Cc1nc2ccc(Oc3ccc4ncc(-c5cnn(CC(=O)N6CCOCC6)c5)nc4c3Cl)cc2[nH]1 [Compound 285] | 20 to 100 | 20 to 100 | ≥ 400 | 20 to 100
21 | Cc1nc2ccc(Oc3ccc4ncc(-c5cnn(CC6CCC(F)(F)C6)c5)nc4c3Cl)cc2[nH]1 (centres unmarked) [Compound 286] | 20 to 100 | 100 to 400 | ≥ 400 | 20 to 100
22 | Cc1nc2ccc(Oc3ccc4ncc(-c5cnn(CC(=O)N6CCC(F)(F)C6)c5)nc4c3Cl)cc2[nH]1 [Compound 287] | 20 to 100 | 20 to 100 | ≥ 400 | 20 to 100
23 | Cc1nc2ccc(Oc3ccc4ncc(-c5cnn([C@H]6CCNC[C@@H]6F)c5)nc4c3C)cc2[nH]1 [Compound 288] | 20 to 100 | 20 to 100 | ≥ 400 | 20 to 100
